# From ChEMBL document CHEMBL1201862, “PubChem BioAssay data set” (2004)
#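 Interpolation was linear, between the two tested concentrations surrounding the appropriate level; five concentrations were tested over 48 hours in 96-well plates. The concentration for 50% growth inhibition is given as GI50.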 The source made the active and inactive calls. No stated cut-off is given here; in the data, active = GI50 up to about 1.1 µM and inactive = higher.
# Columns and labels:
# Assay in all cases: DTP human tumour cell line panel, 48 h
# CAKI-1 = tested on: CAKI-1
# KM12 = tested on: KM12
# HOP-18 = tested on: HOP-18
# SNB-75 = tested on: SNB-75
# LXFL 529 = tested on: LXFL 529
# OVCAR-8 = tested on: OVCAR-8
# SK-MEL-2 = tested on: SK-MEL-2
# MOLT-4 = tested on: MOLT-4
# UO-31 = tested on: UO-31
# HCC 2998 = tested on: HCC 2998
# K562 = tested on: K562
# OVCAR-3 = tested on: OVCAR-3
# HL-60 = tested on: HL-60
# RPMI-8226 = tested on: RPMI-8226
# M14 = tested on: M14
# M19-MEL = tested on: M19-MEL
# NCI-H226 = tested on: NCI-H226
# EKVX = tested on: EKVX
# NCI-H522 = tested on: NCI-H522
# DLD-1 = tested on: DLD-1
# SR = tested on: SR
# COLO 205 = tested on: COLO 205
# HCT-116 = tested on: HCT-116
# 786-0 = tested on: 786-0
# ACHN = tested on: ACHN
# A549 = tested on: A549
# SK-MEL-28 = tested on: SK-MEL-28
# UACC-62 = tested on: UACC-62
# SK-MEL-5 = tested on: SK-MEL-5
# SNB-78 = tested on: SNB-78
# Malme-3M = tested on: Malme-3M
# SNB-19 = tested on: SNB-19
# IGROV-1 = tested on: IGROV-1
# HOP-62 = tested on: HOP-62
# RXF 631 = tested on: RXF 631
# OVCAR-4 = tested on: OVCAR-4
# DMS-273 = tested on: DMS-273
# U-251 = tested on: U-251
# RXF 393 = tested on: RXF 393
# TK-10 = tested on: TK-10
# SK-OV-3 = tested on: SK-OV-3
# HCT-15 = tested on: HCT-15
# KM-20L2 = tested on: KM-20L2
# A498 = tested on: A498
# DMS-114 = tested on: DMS-114
# SF-268 = tested on: SF-268
# SW-620 = tested on: SW-620
# NCI-H460 = tested on: NCI-H460
# UACC-257 = tested on: UACC-257
# CCRF-CEM = tested on: CCRF-CEM
# SF-539 = tested on: SF-539
# SN12C = tested on: SN12C
# HT-29 = tested on: HT-29
# NCI-H23 = tested on: NCI-H23
# XF498 = tested on: XF498
# LOX IMVI = tested on: LOX IMVI
# SF-295 = tested on: SF-295
# OVCAR-5 = tested on: OVCAR-5
compound,measurement,setting,value
CN(C)C(=S)/N=c1\ss/c(=N\S(=O)(=O)c2ccccc2)n1N(C)C,GI50,CAKI-1,> 100 µM (inactive)
same,GI50,KM12,> 100 µM (inactive)
same,GI50,HOP-18,> 100 µM (inactive)
same,GI50,SNB-75,> 100 µM (inactive)
same,GI50,LXFL 529,> 100 µM (inactive)
same,GI50,OVCAR-8,> 100 µM (inactive)
same,GI50,SK-MEL-2,> 100 µM (inactive)
same,GI50,MOLT-4,> 100 µM (inactive)
same,GI50,UO-31,> 100 µM (inactive)
same,GI50,HCC 2998,> 100 µM (inactive)
same,GI50,K562,59.8 µM (inactive)
same,GI50,OVCAR-3,> 100 µM (inactive)
same,GI50,HL-60,> 100 µM (inactive)
same,GI50,RPMI-8226,62.7 µM (inactive)
same,GI50,M14,> 100 µM (inactive)
same,GI50,M19-MEL,55.5 µM (inactive)
same,GI50,NCI-H226,> 100 µM (inactive)
same,GI50,EKVX,> 100 µM (inactive)
same,GI50,NCI-H522,4.92 µM (inactive)
same,GI50,DLD-1,> 100 µM (inactive)
same,GI50,SR,41.2 µM (inactive)
same,GI50,COLO 205,> 100 µM (inactive)
same,GI50,HCT-116,75 µM (inactive)
same,GI50,786-0,45 µM (inactive)
same,GI50,ACHN,> 100 µM (inactive)
same,GI50,A549,> 100 µM (inactive)
same,GI50,SK-MEL-28,> 100 µM (inactive)
same,GI50,UACC-62,> 100 µM (inactive)
same,GI50,SK-MEL-5,> 100 µM (inactive)
same,GI50,SNB-78,> 100 µM (inactive)
same,GI50,Malme-3M,> 100 µM (inactive)
same,GI50,SNB-19,> 100 µM (inactive)
same,GI50,IGROV-1,> 100 µM (inactive)
same,GI50,HOP-62,> 100 µM (inactive)
same,GI50,RXF 631,> 100 µM (inactive)
same,GI50,OVCAR-4,> 100 µM (inactive)
same,GI50,DMS-273,92 µM (inactive)
same,GI50,U-251,> 100 µM (inactive)
same,GI50,RXF 393,9.91 µM (inactive)
same,GI50,TK-10,> 100 µM (inactive)
same,GI50,SK-OV-3,> 100 µM (inactive)
same,GI50,HCT-15,> 100 µM
same,GI50,KM-20L2,> 100 µM (inactive)
same,GI50,A498,> 100 µM (inactive)
same,GI50,DMS-114,12.9 µM (inactive)
same,GI50,SF-268,69.8 µM (inactive)
same,GI50,SW-620,> 100 µM (inactive)
same,GI50,NCI-H460,> 100 µM (inactive)
same,GI50,UACC-257,> 100 µM (inactive)
same,GI50,CCRF-CEM,37.9 µM (inactive)
same,GI50,SF-539,> 100 µM (inactive)
same,GI50,SN12C,> 100 µM (inactive)
Cc1ccc(-n2c3nc(=O)n(C)c(=O)c-3nc3ccccc32)c(C)c1,GI50,CAKI-1,27.6 µM (inactive)
same,GI50,KM12,8.18 µM (inactive)
same,GI50,HT-29,3.28 µM (inactive)
same,GI50,HOP-18,6.62 µM (inactive)
same,GI50,SNB-75,13.3 µM (inactive)
same,GI50,LXFL 529,11.3 µM (inactive)
same,GI50,OVCAR-8,8.18 µM (inactive)
same,GI50,SK-MEL-2,12.9 µM (inactive)
same,GI50,MOLT-4,13.9 µM (inactive)
same,GI50,UO-31,24.3 µM (inactive)
same,GI50,HCC 2998,5.16 µM (inactive)
same,GI50,NCI-H23,1.9 µM (inactive)
same,GI50,K562,16.4 µM (inactive)
same,GI50,OVCAR-3,2.5 µM (inactive)
same,GI50,HL-60,6.49 µM (inactive)
same,GI50,RPMI-8226,12.8 µM (inactive)
same,GI50,M14,4.76 µM (inactive)
same,GI50,M19-MEL,1.63 µM (inactive)
same,GI50,NCI-H226,14.9 µM (inactive)
same,GI50,EKVX,8.67 µM (inactive)
same,GI50,NCI-H522,15.4 µM (inactive)
same,GI50,DLD-1,15 µM (inactive)
same,GI50,COLO 205,3.46 µM (inactive)
same,GI50,HCT-116,11.8 µM (inactive)
same,GI50,786-0,5.83 µM (inactive)
same,GI50,ACHN,3.58 µM (inactive)
same,GI50,A549,4.74 µM (inactive)
same,GI50,UACC-62,2.33 µM (inactive)
same,GI50,SK-MEL-5,4.73 µM (inactive)
same,GI50,SNB-78,21.5 µM (inactive)
same,GI50,Malme-3M,3.92 µM (inactive)
same,GI50,SNB-19,5.28 µM (inactive)
same,GI50,XF498,13.1 µM (inactive)
same,GI50,IGROV-1,15.1 µM (inactive)
same,GI50,HOP-62,24.3 µM (inactive)
same,GI50,LOX IMVI,12.6 µM (inactive)
same,GI50,RXF 631,7.05 µM (inactive)
same,GI50,OVCAR-4,12 µM (inactive)
same,GI50,DMS-273,4.34 µM (inactive)
same,GI50,U-251,15.8 µM (inactive)
same,GI50,SF-295,10.7 µM (inactive)
same,GI50,RXF 393,14.6 µM (inactive)
same,GI50,TK-10,13.2 µM (inactive)
same,GI50,SK-OV-3,35.1 µM (inactive)
same,GI50,HCT-15,9.62 µM
same,GI50,KM-20L2,4.92 µM (inactive)
same,GI50,A498,> 10 µM (inactive)
same,GI50,SF-268,15.4 µM (inactive)
same,GI50,SW-620,5.57 µM (inactive)
same,GI50,NCI-H460,3.49 µM (inactive)
same,GI50,UACC-257,3.6 µM (inactive)
same,GI50,OVCAR-5,18.7 µM (inactive)
same,GI50,CCRF-CEM,14.8 µM (inactive)
same,GI50,SF-539,13.2 µM (inactive)
same,GI50,SN12C,10.9 µM (inactive)
